Nine compounds from US7635572B2, “Methods for conducting assays for enzyme activity on protein microarrays” (Life Technologies Corporation, priority 2004, dated 2009) can be followed below.

Molecules are shown by their SMILES.

The target in experiment [1] is T1, plurality of kinases (Table 5) (Homo sapiens, UniProt Q08881).
T1 sequence (Q08881 1-620): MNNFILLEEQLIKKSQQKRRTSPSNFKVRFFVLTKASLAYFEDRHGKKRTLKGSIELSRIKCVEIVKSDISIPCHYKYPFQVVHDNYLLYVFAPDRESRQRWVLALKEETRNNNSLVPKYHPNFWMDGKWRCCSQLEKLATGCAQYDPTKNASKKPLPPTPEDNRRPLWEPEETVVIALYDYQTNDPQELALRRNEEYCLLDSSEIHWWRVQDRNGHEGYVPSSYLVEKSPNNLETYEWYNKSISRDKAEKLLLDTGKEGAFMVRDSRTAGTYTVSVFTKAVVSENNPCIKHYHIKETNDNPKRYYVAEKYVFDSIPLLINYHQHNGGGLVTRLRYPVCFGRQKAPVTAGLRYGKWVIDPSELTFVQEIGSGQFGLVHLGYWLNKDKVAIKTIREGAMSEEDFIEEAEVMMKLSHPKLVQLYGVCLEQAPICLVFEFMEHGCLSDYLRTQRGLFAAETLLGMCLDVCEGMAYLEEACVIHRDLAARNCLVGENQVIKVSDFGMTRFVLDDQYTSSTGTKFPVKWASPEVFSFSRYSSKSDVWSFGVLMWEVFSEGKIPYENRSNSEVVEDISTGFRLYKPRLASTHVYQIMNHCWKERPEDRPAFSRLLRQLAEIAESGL
The experiment is described as follows: Further analysis of a plurality of inhibitors and a plurality of kinases on microarray (Example IX, Table 5).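 On Inhibition level, CAMK2D: level 0 none or unclear then 1 little or marginal then 2 substantial inhibition.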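 On Inhibition level, DAPK2: level 0 no or unclear inhibition to Level 2 substantial inhibition.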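 On Inhibition level, DYRK1A: level 0 none or unclear Level 1 marginal Level 2 substantial inhibition.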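 On Inhibition level, ITK: level 0 none or unclear then 1 little or marginal then 2 substantial inhibition.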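 On Inhibition level, STK6: level 0 no or unclear inhibition to Level 2 substantial inhibition.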 Particulars: plate E4; inhibitor 100 uM. It counts as biochemical.

For experiment [2], the target named is T2, plurality of kinases (Table 5) (Homo sapiens, UniProt O14965).
T2 sequence (O14965 1-403): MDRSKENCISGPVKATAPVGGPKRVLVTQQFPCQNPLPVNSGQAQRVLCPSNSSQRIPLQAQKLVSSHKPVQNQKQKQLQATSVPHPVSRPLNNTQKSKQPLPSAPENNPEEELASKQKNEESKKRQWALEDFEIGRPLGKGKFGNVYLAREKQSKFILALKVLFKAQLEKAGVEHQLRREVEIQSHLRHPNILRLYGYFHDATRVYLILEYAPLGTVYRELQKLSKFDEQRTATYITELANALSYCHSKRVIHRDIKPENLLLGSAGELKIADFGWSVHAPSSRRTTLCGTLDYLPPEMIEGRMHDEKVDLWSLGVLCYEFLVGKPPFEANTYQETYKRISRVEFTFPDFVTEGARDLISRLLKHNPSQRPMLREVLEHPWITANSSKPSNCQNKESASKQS
The description is as above. It counts as biochemical. The following applies: plate C6.

The target of experiment [3] is plurality of kinases (Table 5) (Homo sapiens, UniProt Q9UIK4). The experiment is described as above. It counts as biochemical. The following applies: plate H3.
Experiment [4] has as its target T3, plurality of kinases (Table 5) (Homo sapiens, UniProt Q8IV63).
T3 sequence (Q8IV63 1-474): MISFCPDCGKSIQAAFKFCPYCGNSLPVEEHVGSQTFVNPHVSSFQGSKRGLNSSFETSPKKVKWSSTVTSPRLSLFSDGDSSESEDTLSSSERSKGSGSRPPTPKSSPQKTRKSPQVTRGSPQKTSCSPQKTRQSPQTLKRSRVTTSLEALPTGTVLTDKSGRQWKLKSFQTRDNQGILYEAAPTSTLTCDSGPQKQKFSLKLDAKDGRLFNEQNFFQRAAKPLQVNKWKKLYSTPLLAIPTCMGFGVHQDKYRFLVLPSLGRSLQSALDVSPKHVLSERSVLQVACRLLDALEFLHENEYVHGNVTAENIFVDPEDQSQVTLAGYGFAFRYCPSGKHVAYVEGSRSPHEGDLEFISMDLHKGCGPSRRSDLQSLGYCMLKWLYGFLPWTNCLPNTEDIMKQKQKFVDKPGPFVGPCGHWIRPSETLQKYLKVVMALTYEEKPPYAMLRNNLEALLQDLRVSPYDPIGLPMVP
Described as above. It counts as biochemical. Particulars: plate C12.

In experiment [5] the target is plurality of kinases (Table 5) (Homo sapiens, UniProt Q13627). The description is as above. It counts as biochemical. The following applies: plate G6.
The target of experiment [6] is plurality of kinases (Table 5) (Homo sapiens, UniProt Q13557). The description is as above. It counts as biochemical. The following applies: plate B1; inhibitor 100 uM.
In experiment [7] the target is T4, FYN (Homo sapiens, UniProt P06241). The experiment is described as follows: Global specificity profiling, single point inhibition on kinase microarrays (Example VII). It counts as biochemical. Particulars: substrates histone, casein, MBP, polyEY. On the procedure: (§1) To assess the application of microarray assays for compound profiling, seven known inhibitors (see Table of inhibitors used in global specificity profiling experiment) and one control (2% DMSO) were tested on microarrays printed with a group of kinases (as well as positive and negative controls). […] Twelve spots of each kinase or control were printed on each array, and three arrays were used for each inhibitor. A mixture of generic kinase substrates (histone, casein, MBP, and polyEY) was used in the assay. The average of all signals from the same inhibitor or control experiment was calculated.
(§2) To expedite data analysis regarding the kinase families that are inhibited by a particular […], a graphical representation can be constructed of inhibition data for substrates in such a manner that phylogenetically related kinases can be spatially arranged on the graphical representation.

Experiment [8] deals with T4, FYN. The experiment is described as follows: Dose-response analysis on 10-well kinase microarray (Example III, FIG. 4). It counts as biochemical. The following applies: different inhibitor concentration in each well; substrate MBP, histone, casein. Here is the method: (§3) Microarrays were prepared with 10 wells/slide, wherein the kinases EPHB3, FYN, and PRKCD and their substrate were immobilized in each well. The slide was coated with substrate essentially as described in section 6.1. Subsequently, a gasket with 10 openings was applied to the surface of the slide thereby creating 10 wells, i.e., the gasket provides the barriers between the wells.

Experiment [9] concerns 39 kinases (Table 4). The experiment is described as follows: Global specificity profiling, single point inhibition on kinase microarrays (Example VII). It counts as biochemical. The following applies: substrates histone, casein, MBP, polyEY, control 2% DMSO. On the procedure: as §1, §2
In experiment [10] the test system is 50 different human kinases. The experiment is described as follows: Inhibitor specificity profiling on kinase microarray (Example II, FIG. 3). The following applies: 100 μm inhibitor; substrate mixture of MBP, histone and casein; versus control without inhibitor.
Method: 1 mL of kinase assay buffer for every 12 glass slides to be probed is prepared. 6 μL of gamma-AT^33P (10 μCi/μL) are added to the assay buffer. The slides are placed in 50 mL conical tubes, laying flat, proteins facing up. 70 μL to 150 μL of the kinase assay buffer with gamma-AT^33P are added onto each slide. Using tweezers, the slide is covered with a hybridization slip, making sure that the solution completely covers the microarray. The conical tube is then closed and placed in a 30° C. incubator. Care should be taken that the slide is laying flat. The reaction is then incubated for 90 minutes. Subsequently, the tubes are removed from the incubator. Approximately 40 mL of dH2O are added to each tube and, using the tweezers, the hybridization slip is removed, the tube is closed and inverted several times for 1-2 minutes to rinse the slide inside the conical tube. The wash solution is then discarded. Approximately 40 mL of dH2O are added again to each tube, the tubes are closed and inverted several times for 1-2 minutes, the wash solution is discarded. The slides are then removed from the tubes and place in a slide box and centrifuged at 4000 rpm for 1-2 minutes.
A phosphor screen (suitable for ^33P) is re-activated for each membrane by exposing it to light for at least 30 minutes. […]
In experiment [11] the target is EPHB3 (Homo sapiens, UniProt P54753). Nature of the experiment: Dose-response analysis on 10-well kinase microarray (Example III, FIG. 4). It counts as biochemical. The following applies: different inhibitor concentration in each well; substrate MBP, histone, casein. Here is the method: Microarrays were prepared with 10 wells/slide, wherein the kinases EPHB3, FYN, and PRKCD and their substrate were immobilized in each well. The slide was coated with substrate essentially as described in section 6.1. Subsequently, a gasket with 10 openings was applied to the surface of the slide thereby creating 10 wells, i.e., the gasket provides the barriers between the wells. The accession numbers for the different kinases in the NCBI database are: for FYN: NM_002037; for PRKCD: NM_006254; and for EPHB3: NM_004443.

Experiment [12] deals with PRKCD (Homo sapiens, UniProt Q05655). The description is as above. It counts as biochemical. The following applies: different inhibitor concentration in each well; substrate MBP, histone, casein. On the procedure: as §3
Chain of PRKCD (Q05655 whole entry): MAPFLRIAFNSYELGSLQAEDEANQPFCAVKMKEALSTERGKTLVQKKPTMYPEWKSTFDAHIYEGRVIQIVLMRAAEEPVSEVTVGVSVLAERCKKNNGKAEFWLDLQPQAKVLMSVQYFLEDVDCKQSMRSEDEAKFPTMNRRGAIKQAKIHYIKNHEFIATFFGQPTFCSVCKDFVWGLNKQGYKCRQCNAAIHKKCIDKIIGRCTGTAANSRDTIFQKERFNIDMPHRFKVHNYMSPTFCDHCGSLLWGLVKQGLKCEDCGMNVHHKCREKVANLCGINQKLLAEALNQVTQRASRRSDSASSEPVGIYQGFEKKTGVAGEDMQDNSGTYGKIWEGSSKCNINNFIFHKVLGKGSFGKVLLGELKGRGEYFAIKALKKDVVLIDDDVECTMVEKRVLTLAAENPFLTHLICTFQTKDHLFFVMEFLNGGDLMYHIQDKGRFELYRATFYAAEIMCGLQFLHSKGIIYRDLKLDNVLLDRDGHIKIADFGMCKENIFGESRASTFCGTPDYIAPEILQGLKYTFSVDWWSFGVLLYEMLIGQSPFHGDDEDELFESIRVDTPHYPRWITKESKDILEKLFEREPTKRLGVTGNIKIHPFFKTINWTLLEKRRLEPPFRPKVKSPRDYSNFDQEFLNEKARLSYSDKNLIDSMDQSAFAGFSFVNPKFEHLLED

Chain of plurality of kinases (Table 5) (Homo sapiens, UniProt Q9UIK4) (Q9UIK4 whole entry): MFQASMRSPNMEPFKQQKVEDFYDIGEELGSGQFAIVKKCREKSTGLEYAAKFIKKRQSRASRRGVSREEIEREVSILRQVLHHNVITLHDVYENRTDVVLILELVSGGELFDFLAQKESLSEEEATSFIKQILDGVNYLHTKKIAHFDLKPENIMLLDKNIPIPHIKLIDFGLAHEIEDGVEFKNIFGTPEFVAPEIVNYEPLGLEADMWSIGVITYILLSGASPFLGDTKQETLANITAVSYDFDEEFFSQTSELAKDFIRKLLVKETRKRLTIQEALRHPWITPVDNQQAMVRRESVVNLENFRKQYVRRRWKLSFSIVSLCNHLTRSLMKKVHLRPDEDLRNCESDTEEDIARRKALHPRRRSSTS
Chain of plurality of kinases (Table 5) (Homo sapiens, UniProt Q13557) (Q13557 whole entry): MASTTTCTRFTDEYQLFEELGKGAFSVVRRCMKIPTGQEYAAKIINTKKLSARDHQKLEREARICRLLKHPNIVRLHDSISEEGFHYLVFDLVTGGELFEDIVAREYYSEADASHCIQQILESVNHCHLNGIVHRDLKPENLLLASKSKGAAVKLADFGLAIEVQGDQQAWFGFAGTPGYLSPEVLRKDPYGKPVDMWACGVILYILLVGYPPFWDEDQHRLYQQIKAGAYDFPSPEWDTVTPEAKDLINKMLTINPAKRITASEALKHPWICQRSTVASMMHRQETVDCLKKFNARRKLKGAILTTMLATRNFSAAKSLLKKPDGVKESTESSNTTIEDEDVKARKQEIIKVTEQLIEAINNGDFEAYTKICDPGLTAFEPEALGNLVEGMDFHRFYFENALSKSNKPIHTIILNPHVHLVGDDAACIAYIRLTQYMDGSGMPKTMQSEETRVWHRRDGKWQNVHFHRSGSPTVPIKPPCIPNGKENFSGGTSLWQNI
T4 sequence (P06241 whole entry): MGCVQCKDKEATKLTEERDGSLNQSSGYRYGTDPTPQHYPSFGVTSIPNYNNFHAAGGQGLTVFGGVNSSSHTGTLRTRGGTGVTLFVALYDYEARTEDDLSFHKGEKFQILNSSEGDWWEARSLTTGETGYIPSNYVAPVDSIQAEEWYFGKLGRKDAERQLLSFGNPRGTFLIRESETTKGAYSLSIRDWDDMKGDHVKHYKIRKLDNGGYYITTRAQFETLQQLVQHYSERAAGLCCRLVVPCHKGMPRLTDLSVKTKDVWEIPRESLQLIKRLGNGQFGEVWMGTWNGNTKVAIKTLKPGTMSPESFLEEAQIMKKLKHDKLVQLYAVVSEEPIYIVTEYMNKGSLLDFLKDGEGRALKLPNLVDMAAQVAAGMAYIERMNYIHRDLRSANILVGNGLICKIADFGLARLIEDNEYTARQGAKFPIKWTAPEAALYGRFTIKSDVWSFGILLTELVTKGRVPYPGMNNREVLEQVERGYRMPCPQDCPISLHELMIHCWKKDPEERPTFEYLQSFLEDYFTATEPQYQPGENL
Chain of EPHB3 (P54753 34-998): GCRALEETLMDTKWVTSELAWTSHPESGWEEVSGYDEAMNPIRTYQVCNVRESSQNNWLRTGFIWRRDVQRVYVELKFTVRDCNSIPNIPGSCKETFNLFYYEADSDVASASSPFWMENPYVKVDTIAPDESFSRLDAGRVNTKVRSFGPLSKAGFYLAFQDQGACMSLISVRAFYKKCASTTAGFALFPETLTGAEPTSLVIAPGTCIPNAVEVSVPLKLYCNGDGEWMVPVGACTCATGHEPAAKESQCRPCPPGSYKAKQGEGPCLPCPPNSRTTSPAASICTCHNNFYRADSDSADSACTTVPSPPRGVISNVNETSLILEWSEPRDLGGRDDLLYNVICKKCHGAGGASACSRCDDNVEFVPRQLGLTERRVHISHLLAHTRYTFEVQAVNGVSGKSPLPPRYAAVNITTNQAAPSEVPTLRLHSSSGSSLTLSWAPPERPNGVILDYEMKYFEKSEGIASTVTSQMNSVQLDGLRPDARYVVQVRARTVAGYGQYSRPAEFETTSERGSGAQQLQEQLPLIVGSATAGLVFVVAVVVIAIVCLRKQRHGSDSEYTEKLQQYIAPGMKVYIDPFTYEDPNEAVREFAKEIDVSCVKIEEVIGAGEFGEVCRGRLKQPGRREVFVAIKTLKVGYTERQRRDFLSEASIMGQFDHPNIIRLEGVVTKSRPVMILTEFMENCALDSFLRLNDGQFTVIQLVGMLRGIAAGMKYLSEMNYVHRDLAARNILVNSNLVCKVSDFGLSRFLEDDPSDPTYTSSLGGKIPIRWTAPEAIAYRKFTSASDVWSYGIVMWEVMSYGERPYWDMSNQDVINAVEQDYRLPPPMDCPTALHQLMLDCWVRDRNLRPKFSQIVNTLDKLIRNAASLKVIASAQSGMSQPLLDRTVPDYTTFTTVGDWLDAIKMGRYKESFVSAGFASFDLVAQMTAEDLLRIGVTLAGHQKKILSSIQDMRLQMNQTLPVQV

On to `O=c1c(-c2ccc(O)cc2)coc2cc(O)cc(O)c12` [Genistein], for which the “Inhibition level, ITK” value in [1] is reported as 2. In addition, the “Inhibition level, STK6” value stood at 0 in [2] (Genistein <3.7 mM) and 2 in [2] (inhibitor 100 uM). Besides, the “Inhibition level, DAPK2” value in [3] (Genistein, conc. not given) is 0; in experiment [3] (inhibitor 100 uM), 2. For the same compound, the results for the “Inhibition level, LOC51231” value in [4] (Genistein <3.7 mM) and in experiment [4] (inhibitor 100 uM) were 0 and 2, respectively. Moreover, the figures for the “Inhibition level, DYRK1A” value in [5] (Genistein <3.7 mM) and in [5] (inhibitor 100 uM) were 1 and 2, respectively.

Take `O=S(=O)(NCCNC/C=C/c1ccc(Br)cc1)c1cccc2cnccc12` [H-89]: the “Inhibition level, CAMK2D” value in experiment [6] turned out to be 0. The “Inhibition level, ITK” value in experiment [1] came out at 1. Further, the “Inhibition level, STK6” value in experiment [2] (inhibitor 100 uM) is reported as 0. Moreover, in experiment [3] (inhibitor 100 uM), the “Inhibition level, DAPK2” value was found to be 2. Also, in experiment [4] (inhibitor 100 uM), the “Inhibition level, LOC51231” value came out at 2. The “Inhibition level, DYRK1A” value in [5] (inhibitor 100 uM) is on record as 2.

Regarding `O=c1c(O)c(-c2ccc(O)c(O)c2)oc2cc(O)cc(O)c12` [Quercetin], the “Inhibition level, ITK” value in experiment [1] came to 0. The “Inhibition level, DAPK2” value in [3] (inhibitor 100 uM) was 0. In addition, in experiment [4] (inhibitor 100 uM), the “Inhibition level, LOC51231” value is 0.

Take `COc1cc2ncnc(Nc3cccc(Cl)c3)c2cc1OC` [AG 1478]: the “Inhibition level, ITK” value in [1] stood at 1. For the same compound, the “Inhibition level, STK6” value in [2] (inhibitor 100 uM) amounted to 0. For the same compound, the “Inhibition level, DAPK2” value in experiment [3] (inhibitor 100 uM) is listed as 0. In addition, in experiment [4] (inhibitor 100 uM), the “Inhibition level, LOC51231” value stood at 0. Also, the “Inhibition level, DYRK1A” value in [5] (inhibitor 100 uM) was determined as 0.

With `N#C/C(=C/c1ccc(O)c(O)c1)C(=O)NCc1ccccc1` [AG 490], in experiment [1], the “Inhibition level, ITK” value is given as 1. Also, the “Inhibition level, STK6” value in [2] (inhibitor 100 uM) was 2. For the same compound, in [3] (inhibitor 100 uM), the “Inhibition level, DAPK2” value worked out at 2. In addition, the “Inhibition level, LOC51231” value in experiment [4] (inhibitor 100 uM) was 0. Also, the “Inhibition level, DYRK1A” value in experiment [5] (inhibitor 100 uM) is on record as 2.

For the compound `CN[C@@H]1C[C@H]2O[C@@](C)([C@@H]1OC)n1c3ccccc3c3c4c(c5c6ccccc6n2c5c31)C(=O)NC4` [Staurosporine], the “inhibition of FYN in global specificity profiling” value in [7] is “inhibited”. Further, in [2] (Staurosporine 21.5 uM), the “Inhibition level, STK6” value is listed as 0. Besides, in [3] (Staurosporine, conc. not given), the “Inhibition level, DAPK2” value worked out at 2. Further, the “Inhibition level, LOC51231” value in experiment [4] (Staurosporine 21.5 uM) was found to be 0. For the same compound, the “inhibition of FYN (dose-response curve)” value in experiment [8] is recorded as “strongly inhibits”.

`Cn1cc(C2=C(c3cn(CCCSC(=N)N)c4ccccc34)C(=O)NC2=O)c2ccccc21` [Ro-31-8220]: in experiment [9], the “observed specificity (percentage-of-inhibition data for 39 kinases)” value is recorded as “more specifically targeted the serine-threonine kinases”. In addition, in experiment [1], the “Inhibition level, ITK” value is on record as 2. In addition, the “Inhibition level, STK6” value in experiment [2] (Ro-31-8220 90 uM) amounted to 0; in experiment [2] (inhibitor 100 uM), 2. For the same compound, the “Inhibition level, DAPK2” value is recorded as 2 in experiment [3] (Ro-31-8220, conc. not given) and 2 in experiment [3] (inhibitor 100 uM). The entries for the “Inhibition level, LOC51231” value in experiment [4] (Ro-31-8220 90 uM) and in experiment [4] (inhibitor 100 uM) were 0 and 2, respectively. Moreover, the “Inhibition level, DYRK1A” value in [5] (Ro-31-8220 90 uM) is recorded as 0; in experiment [5] (inhibitor 100 uM), 2.

As to `CC(=O)c1c(O)c(C)c(O)c(Cc2c(O)c3c(c(C(=O)/C=C/c4ccccc4)c2O)OC(C)(C)C=C3)c1O` [Rottlerin (Mallotoxin)], in [6], the “Inhibition level, CAMK2D” value is 2. The “Inhibition level, ITK” value in experiment [1] stood at 1. In addition, the “Inhibition level, STK6” value in [2] (inhibitor 100 uM) was 2. The “Inhibition level, DAPK2” value in experiment [3] (inhibitor 100 uM) stood at 1. In [4] (inhibitor 100 uM), the “Inhibition level, LOC51231” value amounted to 0. In addition, the “Inhibition level, DYRK1A” value in [5] (inhibitor 100 uM) was found to be 0.

As for `CC(C)(C)n1nc(-c2ccc(Cl)cc2)c2c(N)ncnc21` [PP2], in experiment [9], the “observed specificity (percentage-of-inhibition data for 39 kinases)” value is listed as “primarily inhibited tyrosine kinases”. Further, the “inhibition of tyrosine kinases” value in experiment [10] is recorded as “strongly inhibited”. In addition, in experiment [11], the “inhibition of EPHB3 (dose-response curve)” value was “strongly inhibits”. The “Inhibition level, ITK” value in experiment [1] came to 2. Moreover, in [2] (inhibitor 100 uM), the “Inhibition level, STK6” value is 2. In [3] (inhibitor 100 uM), the “Inhibition level, DAPK2” value came out at 2. Moreover, in experiment [4] (inhibitor 100 uM), the “Inhibition level, LOC51231” value came to 0. In addition, the “Inhibition level, DYRK1A” value in experiment [5] (inhibitor 100 uM) is 1. The “inhibition of PRKCD (dose-response curve)” value in experiment [12] is reported as “but not the serine/threonine kinase PRKCD”.
